Source: patent US20230364119A1, “AUTOPHAGY ACTIVATOR” (Resonac Corporation, priority 2020, published 2023)

Tests used:
[1] = tested on: human neuroblastoma (SH-SY5Y); assay: Apoptosis suppressing action caused by amyloid β in human neuroblastoma (Hoechst 33342 staining); type: cell-based
Experimental: The proportion of apoptotic cells in human neuroblastoma (SH-SY5Y; obtained from ATCC) in the presence of an autophagy activator was measured by the following test method to evaluate the apoptosis suppressing action of the autophagy activator.
In the following examples and comparative examples, tests were performed by adding amyloid β, which is known to induce cell death called apoptosis of nerve cells due to a decrease in autophagy, to each medium.
SH-SY5Y cells were prepared at a seeding density of 50000 cells/cm^2 and cultured for 24 hours in D-MEM medium/Ham's F-12 medium (manufactured by Sigma-Aldrich) to which 10% fetal bovine serum (manufactured by MP Biomedicals) was added. […]
Thereafter, an aqueous solution of 10 μM Hoechst 33342 (manufactured by Sigma-Aldrich) was added to each SH-SY5Y cell from which the medium was removed, and the cells were allowed to stand at room temperature (25° C.) for 10 minutes. After removing the solution, each SH-SY5Y cell was washed with phosphate buffer (PBS, manufactured by FUJIFILM Wako Pure Chemical Corporation), and with a fluorescence microscope, the number of cells showing strong apoptosis-like Hoechst fluorescence due to chromatin aggregation (Hoechst (+) cells) was counted. […] For each example, relative values were calculated when the proportion of apoptotic cells in Reference Example 4 was set to 1.00, and the results are shown in Table 7.

ATG5 gene = ATG5 gene expression promoting effect in human senescent fibroblasts (quantitative real-time PCR); type: cell-based
Experimental: Senescent fibroblasts were prepared by the following procedure.
Normal human fibroblasts (NB1RGB, RIKEN BRC Cell Bank) were cultured until confluent in D-MEM medium (manufactured by Sigma-Aldrich) to which 10% fetal bovine serum (manufactured by MP Biomedicals) was added. Thereafter, the cells were treated with 250 μM aqueous hydrogen peroxide for 2 hours, and cultured for 24 hours in D-MEM medium to which fresh 10% fetal bovine serum was added. The treatment with aqueous hydrogen peroxide and the cell culture operation were repeated three times, and the obtained fibroblasts were used as senescent fibroblasts.
The prepared senescent fibroblasts were prepared at a seeding density of 10000 cells/cm^2 and cultured for 24 hours in D-MEM medium (manufactured by Sigma-Aldrich) to which 10% fetal bovine serum (manufactured by MP Biomedicals) was added. […]
Then, using Nucleospin (registered trademark) RNA kit (manufactured by Takara Bio Inc.), RNA was extracted from senescent fibroblasts or normal human fibroblasts in each example, and cDNA was synthesized from the obtained RNA. Next, using this cDNA as a template, by quantitative real-time PCR, the expression level of each gene was quantified using primers (manufactured by Takara Bio Inc.) specific to the LC3 gene, ATG5 gene, and Beclin 1 gene, respectively. […]

O[C@H]1[C@H](O)[C@@H](O)[C@H](O)[C@@H](O)[C@H]1O [Comparative Example 2, myo-inositol]
proportion of apoptotic cells, in words ([1]; SH-SY5Y cells with amyloid β, compared to Comparative Example 7 (purified water and amyloid β)): almost the same
Proportion of apoptotic cells ([1]; SH-SY5Y cells, 30 μM amyloid β present, 48 hours, 10^−3% (V/V) inositol or inositol derivative A, with the vitamin derivative of the example where added, relative value, Reference Example 4 (purified water, no amyloid β) = 1.00): 3.98
Relative gene expression level ATG5 (ATG5 gene; 24 hours, 10^−3% (V/V) inositol or inositol derivative A, with the vitamin derivative of the example where added, GAPDH-standardized, Comparative Example 1 (purified water) = 1.00): 1.21
expression level of the ATG5 gene, in words (ATG5 gene; compared to Comparative Example 1 (purified water only)): more increased
